PMC4281461, “Pharmacokinetic Comparative Study of Gastrodin and Rhynchophylline after Oral Administration of Different Prescriptions of Yizhi Tablets in Rats by an HPLC-ESI/MS Method” (Evidence-based Complementary and Alternative Medicine : eCAM, 2014)
Read-outs that look alike come from different tables or passages of the source.

Assays:
[1] = Plasma pharmacokinetics in rats after oral administration of Yizhi tablets, EPT or EPG (HPLC-ESI/MS); format: in vivo, Sprague-Dawley rats; conditions: for AUC(0-inf) / CL/F / Cmax / Tmax / MRT last / MRT inf / AUC(0-t): male, Sprague-Dawley; for MRT last: read-out: MRT(0–t) (converted); for MRT inf: read-out: MRT(0–∞) (converted)
Description: Male Sprague-Dawley rats (weight: 220 ± 30 g) were purchased from the animal laboratory centre at Tsinghua University (Beijing, China). All animals were maintained in an environmentally controlled room under controlled temperature (22–25°C) and relative humidity (50 ± 5%) on 12 h light/dark cycles (lights on from 08:00 to 20:00). Experiments were conducted in a specific pathogen-free (SPF) grade laboratory, according to the guidelines of the Guiding Principles for the Care and Use of Laboratory Animals approved by the Committee for Animal Experiments at Tsinghua University (Beijing, China). The animals were acclimated for one week before use. Standard diet and water were provided to the rats ad libitum.
Yizhi tablets were prepared by mixing Yizhi tablet powder (9 g) in 10 mL 5% CMC-Na with a magnetic stirring apparatus. The concentration of effective parts of tianma (EPT, total saponins from Gastrodiae) and gouteng (EPG, rhynchophylla alkaloids) was equivalent to that in a Yizhi tablet. The three different suspensions were shacked uniformly before administration.
The rats were randomly assigned to one of three groups (1–3), representing the groups administered with EPT, EPG, and Yizhi, respectively. Each group contained six rats. The rats fasted overnight with free access to water before dose administration. After a single dose was administered by oral gavage, blood samples (0.5 mL) were collected in heparinized tubes via the orbital vein at 0 min, 10 min, 20 min, 30 min, 45 min, 1 h, 2 h, 4 h, 6 h, 8 h, and 12 h. All blood samples were centrifuged at 3000 rpm for 15 min to collect plasma. The plasma samples obtained were stored at −20°C until analysis. Along with the plasma samples, quality control (QC) samples were distributed among calibrators and unknown samples in the analytical run. All of the blank samples used as controls were prepared by the same method as drug-containing samples.
To 200 μL of thawed plasma, 25 μL aqueous ammonia and 800 μL ether were added. The supernatant was separated and dried under nitrogen gas at 37°C after vortexing for 1 min and centrifuging at 10,000 g for 15 min at 4°C. The residues were reconstituted in 50 μL of methanol and centrifuged at 15,000 g for 15 min. A 20 μL aliquot of the supernatant was injected into the HPLC-MS system for analysis of RIN. To the residue, 800 μL methanol was added. The supernatant was separated and evaporated to dryness under nitrogen at room temperature after being vortexed for 3 min and centrifuged at 10,000 g for 15 min. The residue was reconstituted in 50 μL of the initial mobile phase and centrifuged at 15,000 g for 15 min. 20 μL aliquot of the supernatant was injected into the HPLC-MS system for analysis of GAS and HBA.
Yizhi tablets, EPT, and EPG were separately suspended in 0.5% carboxymethylcellulose solution and administered orally to six conscious rats at doses of 9 g/kg for Yizhi tablets, 5.4 g/kg for EPT, and 3.6 g/kg for EPG, respectively. Blood samples were collected from the retroorbital plexus of rats under light anaesthesia with ether. Blood samples were collected in microfuge tubes containing heparin as an anticoagulant at 0 min, 10 min, 20 min, 30 min, 45 min, 1 h, 2 h, 4 h, 6 h, 8 h, and 12 h after treatment. Plasma was harvested by centrifuging blood samples at 3500 ×g for 10 min and stored at −80°C until analysis. The concentrations of GAS, HBA, and RIN in plasma were determined as described above. QC samples were distributed among calibrators and samples in the analytical run to adjust the error.
The pharmacokinetic parameters, such as area under the plasma concentration-time curve (AUC), maximum plasma concentration (C max), corresponding time (T max) and half-life (T 1/2), plasma clearance (CL), mean residence time (MRT), and initial plasma concentration (C 0) for orally administered dose, were performed on each individual set using the software of Kinetica (Version 5.0, Thermo Electron Corp., MA, USA) by the noncompartmental model. […]

[2] = Stability of GAS, HBA and RIN spiked into rat plasma (HPLC-MS); format: physicochemical; conditions: for Stability (RE, %) 20°C/24 h / Stability (RE, %) Freeze-thaw (3 cycles) / Stability (RE, %) −80°C/20 days: rat plasma, n = 3; for stability spiked into rat plasma: room temperature (22–25°C) for 24 h, −80°C for 20 days, three freeze/thaw cycles
Description: The stability experiments on GAS, HBA, and RIN were performed at three concentrations of the QC samples, using three replicates at each concentration (10, 50, and 100 μg/mL for GAS and HBA and 1, 5, and 10 μg/mL for RIN). Short-term stability was determined after exposure of the spiked samples at room temperature for 24 h. The freeze/thaw stability was evaluated after three complete freeze/thaw cycles (−80°C) on consecutive days. Long-term stability was assessed after storage of the standard spiked plasma samples at −80°C for 20 days. Postextraction stability was determined after the extracted samples had been stored in the autosampler pending analysis at the temperature of the autoinjector (4°C) for 24 h. The analytes were considered stable in the biological matrix when 85–115% (RE) of the initial concentration was found.

[3] = in vivo, rat plasma, oral EPT 5.4 g/kg, n = 6
[4] = in vivo, rat plasma, oral Yizhi tablets 9 g/kg, n = 6
[5] = rat, in vivo, po, 9 g/kg, oral Yizhi tablets 9 g/kg, n = 6
[6] = rat, in vivo, po, 9 g/kg, text value matching the Yizhi tablet group (oral 9 g/kg)
[7] = in vivo, rat plasma, oral EPG 3.6 g/kg, n = 6
[8] = rat plasma, oral EPT 5.4 g/kg, n = 6
[9] = rat plasma, oral Yizhi tablets 9 g/kg, n = 6

## OCc1ccc(O[C@@H]2O[C@H](CO)[C@@H](O)[C@H](O)[C@H]2O)cc1 [GAS, Gastrodin]
[1]; [3]
  AUC(0-inf): 367000 ng·h/mL
  CL/F: 2.32 ± 0.25 mL/min/kg
  Cmax: 188000 ± 19300 ng/mL
  Tmax: 0.361 h
  MRT last: 2.03 h
  MRT inf: 2.21 h
[1]; [4]
  AUC(0-inf): 249000 ng·h/mL
  CL/F: 3.5 ± 0.1 mL/min/kg
  Cmax: 141000 ± 19000 ng/mL
  Tmax: 0.75 h
  MRT last: 2.69 h
  MRT inf: 3.29 h
[1]; rat, in vivo, po, 5.4 g/kg, oral EPT 5.4 g/kg, n = 6
  AUC(0-t): 359000 ng·h/mL
[1]; [5]
  AUC(0-t): 230000 ng·h/mL
[1]; [6]
  AUC(0-t): 230000 ng·h/mL
[1]; rat plasma, Yizhi tablet group versus EPT group
  MRT change when coadministered with Yizhi tablet: 1.32 fold
[1]; rat plasma, oral Yizhi tablets
  time of first of two successive maximum plasma concentrations: 45 min
  time of second of two successive maximum plasma concentrations: 120 min
[2]; 10 μg/mL
  Stability (RE, %) 20°C/24 h: 9.35%
  Stability (RE, %) Freeze-thaw (3 cycles): 5.36%
  Stability (RE, %) −80°C/20 days: 4.38%
[2]; 50 μg/mL
  Stability (RE, %) 20°C/24 h: 3.17%
  Stability (RE, %) Freeze-thaw (3 cycles): 4.12%
  Stability (RE, %) −80°C/20 days: 6.95%
[2]; 100 μg/mL
  Stability (RE, %) 20°C/24 h: 3.93%
  Stability (RE, %) Freeze-thaw (3 cycles): 8.26%
  Stability (RE, %) −80°C/20 days: 8.01%
[2]
  stability spiked into rat plasma: stable

## CC[C@H]1CN2CC[C@]3(C(=O)Nc4ccccc43)[C@@H]2C[C@@H]1/C(=C\OC)C(=O)OC [RIN, rhynchophylline]
[1]; [7]
  AUC(0-inf): 43400 ng·h/mL
  CL/F: 1.55 ± 0.13 mL/min/kg
  Cmax: 6170 ± 380 ng/mL
  Tmax: 3.67 h
  MRT last: 4.78 h
  MRT inf: 5.59 h
[1]; [4]
  AUC(0-inf): 32000 ng·h/mL
  CL/F: 2.18 ± 0.46 mL/min/kg
  Cmax: 6500 ± 1440 ng/mL
  Tmax: 4 h
  MRT last: 3.72 h
  MRT inf: 4.59 h
[1]; rat, in vivo, po, 3.6 g/kg, oral EPG 3.6 g/kg
  AUC(0-t): 40200 ng·h/mL
[1]; rat, in vivo, po, 3.6 g/kg, oral EPG 3.6 g/kg, n = 6
  AUC(0-t): 40200 ng·h/mL
[1]; [5]
  AUC(0-t): 29700 ng·h/mL
[1]; [6]
  AUC(0-t): 29700 ng·h/mL
[1]; rat plasma, Yizhi tablets versus EPG alone
  delay of T max: 0.333 h
[2]; 1 μg/mL
  Stability (RE, %) 20°C/24 h: 8.63%
  Stability (RE, %) Freeze-thaw (3 cycles): 7.18%
  Stability (RE, %) −80°C/20 days: 6.88%
[2]; 5 μg/mL
  Stability (RE, %) 20°C/24 h: 7.65%
  Stability (RE, %) Freeze-thaw (3 cycles): 8.08%
  Stability (RE, %) −80°C/20 days: 8.04%
[2]; 10 μg/mL
  Stability (RE, %) 20°C/24 h: 9.35%
  Stability (RE, %) Freeze-thaw (3 cycles): 4.56%
  Stability (RE, %) −80°C/20 days: 5.49%
[2]
  stability spiked into rat plasma: stable

## OCc1ccc(O)cc1 [HBA, p-hydroxybenzyl alcohol]
[1]; [8]
  AUC(0-inf): 34700 ng·h/mL
  AUC(0-t): 27600 ng·h/mL
  Cmax: 9120 ± 610 ng/mL
  Tmax: 1 h
  MRT last: 2.57 h
  MRT inf: 3.98 h
[1]; [9]
  AUC(0-inf): 52200 ng·h/mL
  AUC(0-t): 37800 ng·h/mL
  Cmax: 10400 ± 3020 ng/mL
  Tmax: 0.917 h
  MRT last: 4.44 h
  MRT inf: 9.22 h
[1]; rat plasma, increased AUC, longer MRT (P < 0.01), higher C max
  bioavailability in Yizhi tablet group compared with EPT alone: higher bioavailability
[2]; 10 μg/mL
  Stability (RE, %) 20°C/24 h: 4.69%
  Stability (RE, %) Freeze-thaw (3 cycles): 2.65%
  Stability (RE, %) −80°C/20 days: 4.58%
[2]; 50 μg/mL
  Stability (RE, %) 20°C/24 h: 2.65%
  Stability (RE, %) Freeze-thaw (3 cycles): 4.65%
  Stability (RE, %) −80°C/20 days: 5.63%
[2]; 100 μg/mL
  Stability (RE, %) 20°C/24 h: 3.17%
  Stability (RE, %) Freeze-thaw (3 cycles): 7.03%
  Stability (RE, %) −80°C/20 days: 7.15%
[2]
  stability spiked into rat plasma: stable
